In one assay the test system is MV-4-11 cells. Briefly: Cell Viability Assay in MV-4-11 Cells. The class given is cell-based. The note with it: Homo sapiens, MV4-11, 72 h. In outline: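 MV-4-11 cells at 7,000/well in IMDM with 10% FBS, exposed to compound for 72 h. Viability by CellTiter-Glo luminescence, normalized to DMSO as 100%, fitted with a four-parameter curve.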
`Cc1cccc2ccnc(N(C(=O)c3ccc(C#CC(C)(C)O)cc3F)[C@@H]3CCCNC3)c12` [Example 592, (R)-2-fluoro-4-(3-hydroxy-3-methylbut-1-yn-1-yl)-N-(8-methylisoquinolin-1-yl)-N-(piperidin-3-yl)benzamide] yielded an IC50 of 360 nM.

Still in this assay, the particulars now being: Homo sapiens, MV4-11, 72 h, MV-4-11 cells, 72 h, Cell-Titer Glo; read-out: IC50.
With `Cn1cc(-c2ccc(C(=O)N(c3nccc4cc(-c5ccc(S(C)(=O)=O)cc5)ccc34)[C@@H]3CCCNC3)c(F)c2)nn1` [Example 582, (R)-2-fluoro-4-(1-methyl-1H-1,2,3-triazol-4-yl)-N-(6-(4-(methylsulfonyl)phenyl)isoquinolin-1-yl)-N-(piperidin-3-yl)benzamide], the IC50 worked out at 220 nM.

As for `Cc1cc(F)cc2ccnc(N(C(=O)c3ccc(-n4nnc5cccnc54)cc3F)[C@@H]3CCCNC3)c12` [Example 583, (R)-4-(3H-[1,2,3]triazolo[4,5-b]pyridin-3-yl)-2-fluoro-N-(6-fluoro-8-methylisoquinolin-1-yl)-N-(piperidin-3-yl)benzamide], the IC50 turned out to be 4.2 nM. On the same count and under the same terms, the result for `CC(C)(O)c1ccc(-c2cc3c(N(C(=O)c4ccc(-n5nnc6cccnc65)cc4F)[C@@H]4CCCNC4)nccc3s2)cc1` [Example 585, (R)-4-(3H-[1,2,3]triazolo[4,5-b]pyridin-3-yl)-2-fluoro-N-(2-(4-(2-hydroxypropan-2-yl)phenyl)thieno[3,2-c]pyridin-4-yl)-N-(piperidin-3-yl)benzamide] reads 440 nM; that for `CC(C)(O)C#Cc1ccc2c(N(C(=O)c3ccc(-n4nnc5cccnc54)cc3F)[C@@H]3CCCNC3)nccc2c1` [Example 586, (R)-4-(3H-[1,2,3]triazolo[4,5-b]pyridin-3-yl)-2-fluoro-N-(6-(3-hydroxy-3-methylbut-1-yn-1-yl)isoquinolin-1-yl)-N-(piperidin-3-yl)benzamide], 310 nM; that for `Cc1cc(C#CC(C)(C)O)cc2ccnc(N(C(=O)c3ccc(-n4nnc5cccnc54)cc3F)[C@@H]3CCCNC3)c12` [Example 587, (R)-4-(3H-[1,2,3]triazolo[4,5-b]pyridin-3-yl)-2-fluoro-N-(6-(3-hydroxy-3-methylbut-1-yn-1-yl)-8-methylisoquinolin-1-yl)-N-(piperidin-3-yl)benzamide], 14 nM. Still for that read-out and setting: the result for `Cc1cccc2ccnc(N(C(=O)c3cccc(C#CCCN4C(=O)c5ccccc5C4=O)c3)[C@@H]3CCCNC3)c12` [Example 588, (R)-3-(4-(1,3-dioxoisoindolin-2-yl)but-1-yn-1-yl)-N-(8-methylisoquinolin-1-yl)-N-(piperidin-3-yl)benzamide] reads 790 nM; that for `COC(=O)CCC#Cc1cccc(C(=O)N(c2nccc3cccc(C)c23)[C@@H]2CCCNC2)c1` [Example 589, methyl (R)-5-(3-((8-methylisoquinolin-1-yl)(piperidin-3-yl)carbamoyl)phenyl)pent-4-ynoate], 1000 nM. The same measure, in the same setting: under `Cc1cccc2ccnc(N(C(=O)c3cccc(C#CCCC(=O)O)c3)[C@@H]3CCCNC3)c12` [Example 590, (R)-5-(3-((8-methylisoquinolin-1-yl)(piperidin-3-yl)carbamoyl)phenyl)pent-4-ynoic acid] stands more than 10000 nM. As to `O=C(c1ccc(Nc2ncccn2)cc1F)N(c1nccc2cc(F)ccc12)[C@@H]1CCCNC1` [Example 591, (R)-2-fluoro-N-(6-fluoroisoquinolin-1-yl)-N-(piperidin-3-yl)-4-(pyrimidin-2-ylamino)benzamide], the concentration for half-maximal inhibition (IC50) is more than 2000 nM. The same measure, in the same setting: under `Cc1nnc(-c2ccc(C(=O)N(c3nccc4sc(-c5ccncc5)cc34)[C@@H]3CCCNC3)c(F)c2)s1` [Example 593, 2-fluoro-4-(5-methyl-1,3,4-thiadiazol-2-yl)-N-[(3R)-3-piperidyl]-N-[2-(4-pyridyl)thieno[3,2-c]pyridin-4-yl]benzamide] stands 780 nM; under `CC(C)(Oc1cccc(-c2cc3c(N(C(=O)c4ccc(-n5nnc6cccnc65)cc4F)[C@@H]4CCCNC4)nccc3s2)c1)C(N)=O` [Example 594], 190 nM; under `Cn1cc(-c2ccc(C(=O)N(c3nccc4sc(-c5ccc(C(C)(C)C(N)=O)cc5)cc34)[C@@H]3CCCNC3)c(F)c2)nn1` [Example 595], 470 nM. Still for that read-out and setting: under `Cn1cc(-c2ccc(C(=O)N(c3nccc4sc(-c5ccc(-c6cn[nH]c6)cc5)cc34)[C@@H]3CCCNC3)c(F)c2)nn1` [Example 597] stands 190 nM. Regarding `O=C(c1ccc(-n2nnc3cccnc32)cc1F)N(c1nccc2sc(-c3ccc(CO)cc3)cc12)[C@@H]1CCCNC1` [Example 599, (R)-4-(3H-[1,2,3]triazolo[4,5-b]pyridin-3-yl)-2-fluoro-N-(2-(4-(hydroxymethyl)phenyl)thieno[3,2-c]pyridin-4-yl)-N-(piperidin-3-yl)benzamide], the IC50 was found to be 240 nM.

As for `CC(O)c1ccc(-c2cc3c(N(C(=O)c4ccc(-n5nnc6cccnc65)cc4F)[C@@H]4CCCNC4)nccc3s2)cc1` (stereo partly drawn) [Example 600, 4-(3H-[1,2,3]triazolo[4,5-b]pyridin-3-yl)-2-fluoro-N-(2-(4-(1-hydroxyethyl)phenyl)thieno[3,2-c]pyridin-4-yl)-N—((R)-piperidin-3-yl)benzamide], the IC50 was determined as 270 nM. Same read-out and setting: under `CC(O)c1cccc(-c2cc3c(N(C(=O)c4ccc(-n5nnc6cccnc65)cc4F)[C@@H]4CCCNC4)nccc3s2)c1` (stereo partly drawn) [Example 601, 4-(3H-[1,2,3]triazolo[4,5-b]pyridin-3-yl)-2-fluoro-N-(2-(3-(1-hydroxyethyl)phenyl)thieno[3,2-c]pyridin-4-yl)-N—((R)-piperidin-3-yl)benzamide] stands 200 nM; under `CC(C)(O)c1cccc(-c2cc3c(N(C(=O)c4ccc(-n5nnc6cccnc65)cc4F)[C@@H]4CCCNC4)nccc3s2)c1` [Example 602, (R)-4-(3H-[1,2,3]triazolo[4,5-b]pyridin-3-yl)-2-fluoro-N-(2-(3-(2-hydroxypropan-2-yl)phenyl)thieno[3,2-c]pyridin-4-yl)-N-(piperidin-3-yl)benzamide], 460 nM; under `CC(=O)c1ccc(-c2cc3c(N(C(=O)c4ccc(-n5nnc6cccnc65)cc4F)[C@@H]4CCCNC4)nccc3s2)cc1` [Example 603, N-[2-(4-acetylphenyl)thieno[3,2-c]pyridin-4-yl]-2-fluoro-N-[(3R)-3-piperidyl]-4-(triazolo[4,5-b]pyridin-3-yl) benzamide], 240 nM. The same measure, in the same setting: the result for `Cn1cc(-c2ccc(C(=O)N(c3nccc4sc(-c5ccc(C(O)(C(F)(F)F)C(F)(F)F)cc5)cc34)[C@@H]3CCCNC3)c(F)c2)nn1` [Example 604, (R)-2-fluoro-N-(2-(4-(1,1,1,3,3,3-hexafluoro-2-hydroxypropan-2-yl)phenyl)thieno[3,2-c]pyridin-4-yl)-4-(1-methyl-1H-1,2,3-triazol-4-yl)-N-(piperidin-3-yl)benzamide] reads 2100 nM. The same measure, in the same setting: the result for `Cn1cc(-c2ccc(C(=O)N(c3nccc4sc(-c5ccc(C(O)C(F)(F)F)cc5)cc34)[C@@H]3CCCNC3)c(F)c2)nn1` (stereo partly drawn) [Example 605, 2-fluoro-4-(1-methyl-1H-1,2,3-triazol-4-yl)-N—((R)-piperidin-3-yl)-N-(2-(4-(2,2,2-trifluoro-1-hydroxyethyl)phenyl)thieno[3,2-c]pyridin-4-yl)benzamide] reads 470 nM; that for `Cc1cc(-c2cc3c(N(C(=O)c4ccc(-n5nnc6cccnc65)cc4F)[C@@H]4CCCNC4)nccc3s2)cc(C)c1C(N)=O` [Example 606, (R)-4-(3H-[1,2,3]triazolo[4,5-b]pyridin-3-yl)-N-(2-(4-carbamoyl-3,5-dimethylphenyl)thieno[3,2-c]pyridin-4-yl)-2-fluoro-N-(piperidin-3-yl)benzamide], 400 nM; that for `Cc1cc(-c2cc3c(N(C(=O)c4ccc(-c5cn(C)nn5)cc4F)[C@@H]4CCCNC4)nccc3s2)ccc1C(N)=O` [Example 607, (R)—N-(2-(4-carbamoyl-3-methylphenyl)thieno[3,2-c]pyridin-4-yl)-2-fluoro-4-(1-methyl-1H-1,2,3-triazol-4-yl)-N-(piperidin-3-yl)benzamide], 800 nM. As for `Cn1cc(-c2ccc(C(=O)N(c3nccc4cc(Cc5ccccc5)ccc34)[C@@H]3CCCNC3)c(F)c2)nn1` [Example 609, (R)—N-(6-benzylisoquinolin-1-yl)-2-fluoro-4-(1-methyl-1H-1,2,3-triazol-4-yl)-N-(piperidin-3-yl)benzamide], the IC50 stood at 400 nM. The same measure, in the same setting: under `CC(=O)c1ccc2c(N(C(=O)c3ccc(-c4cn(C)nn4)cc3F)[C@@H]3CCCNC3)nccc2c1` [Example 610, (R)—N-(6-acetylisoquinolin-1-yl)-2-fluoro-4-(1-methyl-1H-1,2,3-triazol-4-yl)-N-(piperidin-3-yl)benzamide] stands 86 nM; under `Cc1cc(-c2cc3c(N(C(=O)c4ccc(-c5cn(C)nn5)cc4F)[C@@H]4CCCNC4)nccc3s2)cc(C)c1C(N)=O` [Example 611, (R)—N-(2-(4-carbamoyl-3,5-dimethylphenyl)thieno[3,2-c]pyridin-4-yl)-2-fluoro-4-(1-methyl-1H-1,2,3-triazol-4-yl)-N-(piperidin-3-yl)benzamide], 2300 nM.

For `Cc1c(-c2ccc(C(=O)N(c3nccc4sc(-c5ccc(C(N)=O)cc5)cc34)[C@@H]3CCCNC3)c(F)c2)cnn1C` [Example 612, (R)—N-(2-(4-carbamoylphenyl)thieno[3,2-c]pyridin-4-yl)-4-(1,5-dimethyl-1H-pyrazol-4-yl)-2-fluoro-N-(piperidin-3-yl)benzamide], the IC50 is 280 nM. For `Cn1cc(-c2ccc(C(=O)N(c3nccc4sc(-c5ccc(C(N)C(F)(F)F)cc5)cc34)[C@@H]3CCCNC3)c(F)c2)nn1` (stereo partly drawn) [Example 613, N-(2-(4-(1-amino-2,2,2-trifluoroethyl)phenyl)thieno[3,2-c]pyridin-4-yl)-2-fluoro-4-(1-methyl-1H-1,2,3-triazol-4-yl)-N—((R)-piperidin-3-yl)benzamide], the IC50 came to 460 nM.

Consider `Cc1cc(F)cc2ccnc(N(C(=O)c3ccc(-c4cn(C)nn4)cc3)[C@@H]3CCCNC3)c12` [Example 614, (R)—N-(6-fluoro-8-methylisoquinolin-1-yl)-4-(1-methyl-1H-1,2,3-triazol-4-yl)-N-(piperidin-3-yl)benzamide], for which the IC50 stood at 16 nM.
